Converted amounts (≈) assume the structure as drawn. Read-outs that look alike come from different tables or passages of the source. Marks after values point to notes of the source that are not given here.
What was measured:
[1] = system: LPS-treated 3T3-L1 adipocytes; experiment: Adiponectin secretion in LPS/3T3-L1 adipocytes; type: cell-based, murine; conditions: for Maximum adiponectin stimulation: 100 ng/ml LPS, D5 3T3-L1; for Concentration of maximum stimulation of adiponectin secretion: LPS/3T3-L1 adipocytes; for Emax: Mus musculus, 3T3-L1, at the concentration of maximum stimulation (c1), NS = not significantly different from the LPS control
[2] = system: NF-kBp65 nuclear translocation; experiment: Nuclear NF-kBp65 (TransAM) in TNFα-treated 3T3-L1 adipocytes; type: cell-based, murine; conditions: for inhibition of nuclear translocation of NF-kBp65 / inhibition at 5 µg/mL: 5.0 μg/ml; for inhibition at […] / inhibition at 5 µg/mL: Mus musculus; for inhibition at […]: 2.5 μg/ml
Experimental: Cell Culture and Treatment—Following differentiation 3T3-L1 adipocytes were maintained in post-differentiation medium for an additional 40 days. […] Hops derivatives and the positive control pioglitazone were tested at concentrations of 2.5, and 5.0 μg/ml. Test materials were added 1 hour prior to and nuclear extracts were prepared three and 24 hours following treatment with TNFα.
ELISA—3T3-L1 adipocytes were maintained in growth media for 40 days following differentiation. Nuclear NF-kBp65 was determined using the TransAM™ NF-kB kit from Active Motif (Carlsbad, Calif.) was used with no modifications. Jurkat nuclear extracts provided in the kit were derived from cells cultured in medium supplemented with 50 ng/ml TPA (phorbol, 12-myristate, 13 acetate) and 0.5 μM calcium ionophore A23187 for two hours at 37° C. immediately prior to harvesting.
Protein assay—Nuclear protein was quantified using the Active Motif Fluorescent Protein Quantification Kit.

[3] = system: LPS-stimulated 3T3-L1 adipocytes; experiment: IL-6 secretion in LPS/3T3-L1 adipocytes; type: cell-based, murine; conditions: 100 ng LPS/ml, D5 3T3-L1 adipocytes
[4] = system: TNFα-treated 3T3-L1 adipocytes; experiment: Adiponectin secretion from TNFα-treated 3T3-L1 adipocytes; type: cell-based, murine
Experimental: For two days, the cells were allowed grow to reach confluence. […] (3) 0.5 μM dexamethasone and (4) 10 μg/ml insulin (MDI medium). […] Adiponectin Assay—The adiponectin secreted into the medium was quantified using the Mouse Adiponectin Quantikine® Immunoassay kit with no modifications (R&D Systems, Minneapolis, Minn.). […] Statistical Calculations and Interpretation—All assays were preformed in duplicate. […] Differences among the doses and test agents were determined using the Student's t-test without correction for multiple comparisons; the nominal five percent probability of a type I error was selected.

[5] = system: insulin-resistant 3T3-L1 adipocytes; experiment: Adiponectin secretion from insulin-resistant 3T3-L1 adipocytes; type: cell-based, murine; conditions: for Adiponectin/IL-6: ratio of Adiponectin Index to IL-6 Index, insulin-resistant 3T3-L1 adipocytes; for Maximum Adiponectin Secretion: estimated from the y-intercept of Hofstee plots; for dose at which maximal adiponectin secretion was observed: of four doses tested; for EC50: Mus musculus
[6] = system: A549 pulmonary epithelial cells; experiment: Mite dust allergen stimulated PGE2 biosynthesis in A549 cells; type: cell-based, human; conditions: 10 μg/ml, added 60 min before mite dust allergen 1000 ng/ml, 18 h
From the text: Mite dust allergen isolation—Dermatophagoides farinae is the American house dust mite. D. farinae were raised on a 1:1 ratio of Purina Laboratory Chow (Ralston Purina, Co, St. Louis, Mo.) and Fleischmann's granulated dry yeast (Standard Brands, Inc. New York, N.Y.) at room temperature and 75% humidity. Live mites were aspirated from the culture container as they migrated from the medium, killed by freezing, desiccated and stored at 0% humidity. The allergenic component of the mite dust was extracted with water at ambient temperature. Five-hundred mg of mite powder were added to 5 ml of water (1:10 w/v) in a 15 ml conical centrifuge tube (VWR, Rochester, N.Y.), shaken for one minute and allowed to stand overnight at ambient temperature. The next day, the aqueous phase was filtered using a 0.2 μm disposable syringe filter (Nalgene, Rochester, N.Y.). The filtrate was termed mite dust allergen and used to test for induction of PGE2 biosynthesis in A549 pulmonary epithelial cells.
Cell culture and treatment—The human airway epithelial cell line, A549 (American Type Culture Collection, Bethesda, Md.) was cultured and treated as previously described in Example 6. Mite allergen was added to the culture medium to achieve a final concentration of 1000 ng/ml. Eighteen hours later, the media were sampled for PGE2 determination.

[7] = Non-fasting serum glucose and insulin in db/db diabetic mice; type: in vivo, mouse; conditions: three consecutive days
Experimental: The Model—Male, C57BLKS/J m^+/m^+Lepr^db (db/db) mice were used to assess the potential of the test materials to reduce fasting serum glucose or insulin concentrations. This strain of mice is resistant to leptin by virtue of the absence of a functioning leptin receptor.
Testing Procedure—Test substances were administered daily by gavage in 0.2% Tween-80. Serum was collected from the retroorbital sinus before the initial dose and ninety minutes after the third and final dose. Non-fasting serum glucose was determined enzymatically by the mutarotase/glucose oxidase method and serum insulin was determined by a mouse specific ELISA.
The Model—Male, C57BLKS/J m+/m+ Leprdb (db/db) mice were used to assess the potential of the test materials to reduce fasting serum glucose or insulin concentrations. This strain of mice is resistant to leptin by virtue of the absence of a functioning leptin receptor.
Testing Procedure—Test substances were administered daily by gavage in 0.2% Tween-80. Serum was collected from the retroorbital sinus before the initial dose and ninety minutes after the fifth and final dose. Non-fasting serum glucose was determined enzymatically by the mutarotase/glucose oxidase method and serum insulin was determined by a mouse specific ELISA.

[8] = system: TNFα-treated 3T3-L1 adipocytes; experiment: IL-6 secretion from TNFα-treated 3T3-L1 adipocytes; type: cell-based, murine; conditions: for IL-6 Index: D5 3T3-L1 adipocytes, indexed to TNFα control
3T3-L1 adipocytes = experiment: Lipogenesis (Oil Red O / BODIPY) in 3T3-L1 adipocytes; type: cell-based, murine; conditions: 50 μg test material/ml
Experimental: Prior to experiments, cells were cultured in DMEM containing 10% FBS-HI added 50 units penicillin/ml and 50 μg streptomycin/ml, and maintained in log phase prior to experimental setup. Cells were grown in a 5% CO2 humidified incubator at 37° C. Components of the pre-confluent medium included (1) 10% FBS/DMEM containing 4.5 g glucose/L; (2) 50 U/ml penicillin; and (3) 50 μg/ml streptomycin. Growth medium was made by adding 50 ml of heat inactivated FBS and 5 ml of penicillin/streptomycin to 500 ml DMEM. This medium was stored at 4° C. Before use, the medium was warmed to 37° C. in a water bath.
3T3-T1 cells were seeded at an initial density of 6×10^4 cells/cm^2 in 24-well plates. For two days, the cells were allowed grow to reach confluence. […]
Oil Red O Staining—Triglyceride content of D6/D7-differentiated 3T3-L1 cells was estimated with Oil Red O according to the method of Kasturi and Joshi [Kasturi, R. and Joshi, V. C. […] The resulting stained oil droplets were extracted from the cells with isopropanol and quantified by spectrophotometric analysis at 540 nm (MEL312e BIO-KINETICS READER, Bio-Tek Instruments, Winooski, Vt.). […]

[9] = system: RL 95-2 endometrial cancer cells; experiment: Cancer cell proliferation, CyQuant; type: cell-based; conditions: Homo sapiens, RL95-2; 10 μg/ml, 72 hours; read-out: inhibition of cell proliferation relative to the DMSO solvent control
Experimental: Methods—The inhibitory effects of test compounds of the present invention on cancer cell proliferation were examined in the RL 95-2 endometrial cancer cell model (an over expressor of AKT kinase), and in the HT-29 (constitutively expressing COX-2) and SW480 (constitutively expressing activated AKT kinase) colon cancer cell models. Briefly, the target cells were plated into 96 well tissue culture plates and allowed to grow until subconfluent. The cells were then treated for 72 hours with various amounts of the test compounds as described in Example 4 and relative cell proliferation determined by the CyQuant (Invitrogen, Carlsbad, Calif.) commercial fluorescence assay.

[10] = Collagen induced rheumatoid arthritis murine model; type: in vivo, mouse; conditions: 10 mg/kg
[11] = Mus musculus, 3T3-L1, 1.0 μg/ml, with 10 ng TNFα/ml, read-out: % Inhibition of IL-6 secretion
[12] = 3T3-L1, 3 h, three hours post TNFα

Molecule: CCc1ccc(CCOc2ccc(CC3SC(=O)NC3=O)cc2)nc1 (centres unmarked) [Pioglitazone]
- Maximum adiponectin stimulation [1]: 12%
- Concentration of maximum stimulation of adiponectin secretion [1]: 1.25 µg/mL
- Emax [1]: 12%
- inhibition of nuclear translocation of NF-kBp65 ([2]; 24 hours post TNFα): did not inhibit
- inhibition of nuclear translocation of NF-kBp65 ([2]; three hours post TNFα): did not inhibit
- Concentration providing the maximum inhibition of IL-6 secretion [3]: 5.00 µg/mL
- Concentration of maximum adiponectin secretion ([4]; 10 ng TNFα/ml): 1.25 µg/mL
- maximum increase of adiponectin secretion over the TNFα control ([4]; 10 ng TNFα/ml): 80%
- Adiponectin Index Observed ([4]; 1.0 μg/ml, TNFα/3T3-L1 model, indexed to TNFα control (Table 26)): 1.80
- Concentration of maximum adiponectin secretion ([4]; Table 16, 10 ng TNFα/ml): 1.25 µg/mL
- Adiponectin Index ([4]; Table 16, maximum over four doses, 10 ng TNFα/ml): 1.47

Molecule: CC(C)CCC1=C(O)C(C(=O)C(C)C)=C(O)C(CCC(C)C)(CCC(C)C)C1=O [Hexahydrocolupulone (HHCL)]
- Adiponectin/IL-6 ([5]; 50.0 μg/ml): 0.60#

Molecule: CC(C)Cc1ccc(C(C)C(=O)O)cc1 (centres unmarked) [ibuprofen]
- Maximum adiponectin stimulation [1]: 22%
- Concentration of maximum stimulation of adiponectin secretion [1]: 0.625 µg/mL
- Emax [1]: 22%
- Concentration providing the maximum inhibition of IL-6 secretion [3]: 0.625 µg/mL

Molecule: Beta acids
- Percent PGE2 Inhibition [6]: 83%

Molecule: CC(C)CCC1=C(O)C(C(=O)C(C)C)=C(O)C(CCC(C)C)(CCC(C)C)C1=O [hexahydro colupulone, hexahydrocolupulone]
- Maximum Adiponectin Secretion ([5]; insulin-resistant 3T3-L1 cells): 1.83 Fold relative to control
- dose at which maximal adiponectin secretion was observed [5]: 12.5 µg/mL
- concentration required for half maximal adiponectin secretion ([5]; slope of modified Hofstee plot): 3.2 µg/mL

Molecule: O=C(O)c1ccccc1O [salicylic acid]
- Maximum adiponectin stimulation [1]: failed to induce adiponectin secretion
- Concentration of maximum stimulation of adiponectin secretion [1]: 173 µg/mL
- Emax [1]: < 7%
- Concentration providing the maximum inhibition of IL-6 secretion [3]: 50.0 µg/mL

Molecule: CC(=O)Oc1ccccc1C(=O)O [Aspirin]
- Maximum adiponectin stimulation [1]: failed to induce adiponectin secretion
- Concentration of maximum stimulation of adiponectin secretion [1]: 113 µg/mL
- Emax [1]: < 7%
- Concentration providing the maximum inhibition of IL-6 secretion [3]: 25.0 µg/mL

Molecule: CN(C)C(=N)N=C(N)N [metformin, Metformin]
- reduction in serum insulin [7]: 17%
- IL-6 Index ([8]; 1.0 μg/ml, with 10 ng TNFα/ml): 0.91
- IL-6 Index ([8]; 5.0 μg/ml, with 10 ng TNFα/ml): 0.96
- IL-6 Index ([8]; 10 μg/ml, with 10 ng TNFα/ml): 0.78
- IL-6 Index ([8]; 50 μg/ml, with 10 ng TNFα/ml): 0.78
- inhibition at 1 µg/mL [8, 11]: 9%
- inhibition at 5 µg/mL ([8]; Mus musculus, 3T3-L1, 5.0 μg/ml, with 10 ng TNFα/ml): 4%
- inhibition at 10 µg/mL ([8]; Mus musculus, 3T3-L1, 10 μg/ml, with 10 ng TNFα/ml): 22%
- inhibition at 50 µg/mL ([8]; Mus musculus, 3T3-L1, 50 μg/ml, with 10 ng TNFα/ml): 22%
- lipogenic index (observed) (3T3-L1 adipocytes): 0.79

Molecule: Cc1c(C)c2c(c(C)c1O)CCC(C)(COc1ccc(CC3SC(=O)NC3=O)cc1)O2 (centres unmarked) [Troglitazone]
- Maximum adiponectin stimulation [1]: 15%
- Concentration of maximum stimulation of adiponectin secretion [1]: 0.625 µg/mL
- Emax [1]: 15%
- Concentration providing the maximum inhibition of IL-6 secretion [3]: 10.0 µg/mL
- inhibition at 1 µg/mL ([8]; Mus musculus, 3T3-L1, 1 μg/ml, 10 ng TNFα/ml, read-out: inhibition of IL-6 secretion relative to the controls): 34%
- inhibition at 1 µg/mL [8, 11]: 34%
- Adiponectin/IL-6 ([5]; 5.0 μg/ml): 1.12
- EC50 ([5]; 3T3-L1, half maximal adiponectin secretion, estimated from the slope of Hofstee plots, insulin-resistant 3T3-L1 cells, read-out: Test Material at Half Maximal Secretion): 0.085 µg/mL (≈ 0.193 µM)
- EC50 ([5]; 3T3-L1, slope of modified Hofstee plot, read-out: concentration required for half maximal adiponectin secretion): 0.085 µg/mL (≈ 0.193 µM)
- Maximum Adiponectin Secretion ([5]; insulin-resistant 3T3-L1 cells): 2.29 Fold relative to control
- Maximum adiponectin secretion estimated from the y-intercept ([5]; modified Hofstee plot): 2.29 fold
- Concentration of maximum adiponectin secretion ([4]; 10 ng TNFα/ml): 0.625 µg/mL
- maximum increase of adiponectin secretion over the TNFα control ([4]; 10 ng TNFα/ml): 51%

Molecule: COc1cc(O)c(CC=C(C)C)c(O)c1C(=O)/C=C/c1ccc(O)cc1 [xanthohumol]
- inhibition at 10 µg/mL [9]: > 50%
- inhibition at […] [2, 12]: 6.9%
- inhibition at 5 µg/mL [2, 12]: 15.6%
- inhibition at […] ([2]; 3T3-L1, 24 hours post TNFα): 8%
- inhibition at 5 µg/mL ([2]; 3T3-L1, 24 hours post TNFα): 13.4%
- dose at which maximal adiponectin secretion was observed [5]: 1.25 µg/mL

Molecule: COc1ccc2c(c1)c(CC(=O)O)c(C)n2C(=O)c1ccc(Cl)cc1 [Indomethacin, indomethacin]
- Maximum adiponectin stimulation [1]: 9%

Molecule: C[C@]12C=CC(=O)C=C1CC[C@@H]1[C@@H]2[C@@H](O)C[C@@]2(C)[C@H]1CC[C@]2(O)C(=O)CO [prednisolone]
- days with significant reduction of arthritic index [10]: 30 to 42 days
